Measurements from US12528822B2, “Cycloalkane-1,3-diamine derivative” (Daiichi Sankyo Company, Limited, priority 2018, dated 2026).
Structures can show the parent of a compound that is named as a salt. Where two headings read alike, the source gives them in different places.

Legend:
[1] = tested on: MLL-AF9-overexpressing AML-like cells (MA9 cells); test: Differentiation-inducing activity in MLL-AF9-overexpressing AML-like cells (flow cytometry of Gr-1 and cKit); format: cell-based, mouse; settings: 7 days, 5 or 20 nM (Ex. 25, 27), 150 or 300 nM (Ex. 26), 50 or 100 nM (Ex. 22), compared with the control group (DMSO); for rate of the myeloid cell differentiation antigen Gr-1-expressing cells in living cells: FIG. 10; for rate of the cKit-expressing cells in living cells: FIG. 11
Protocol: The human MLL-AF9 fusion gene was introduced into cKit-positive mononuclear cells isolated from the myeloid of C57BL6 mouse, by retrovirus infection. MLL-AF9-overexpressing AML-like cells (MA9 cells) that acquired abnormal growth ability were established by liquid-culturing the cells after virus infection for a long period of time. Serum-free medium (GlutaMax, P/S, Stem Pro-34 medium containing 10 ng/ml mIL-3, 50 ng/mL mSCF and 10 ng/mL human Oncostatin M) was used as a culture medium.
(2 μL/well) (day 0). After culturing for 7 days (day 7), the cells were collected, and blocked with 5% FBS/PBS containing 10% Mouse BD Fc Block (BD) for 10 minutes at room temperature, and then any of various antibodies (Gr-1-FITC or CD117 (cKit)-APC: Biolegend) was added thereto at a final concentration of 0.4 μg/sample, and the mixture was reacted on ice for 30 minutes. Then, dead cell staining dye DAPI (0.2 mg/mL) was added thereto at so as to be 1 μL/sample, and the reaction was carried out on ice for additional 2 minutes under shading. Then, the expression level of each surface antigen of the cells was measured by NovoCyte flow cytometer (LMS). The obtained data were analyzed by FlowJo software (Becton Dickinson), and the rate of each surface antigen-expressing cells in the living cells excluding dead cells was graphed.

K562 cells = test: Cell growth inhibitory activity, K562 cells (CellTiter-Glo, 384-well); format: cell-based; settings: Homo sapiens
Protocol: (§1) Each cell was purchased from American Type Culture Collection (ATCC). […] The prepared drug-containing plate was stored at −30° C. until use, and thawed before use.
(§2) The suspension of each cells was prepared with 10% FBS RPMI1640 culture medium so as to be 1000 cells/mL (K562) or 10000 cells/mL (MV-4-11, MOLM-13), and seeded on the drug-containing plate (40 μL/well) (day 0). The cells were cultured for additional 3 or 7 days. ATP measurement reagent (CellTiter-Glo (registered trademark, Promega Corporation) 2.0 Assay, model number G9242, Promega Corporation) was added to each well at 10 μL/well, on the day of the drug addition (day 0) and 3 days (day 3) or 7 days (day 7) after the drug addition. After affixing a black sticker on the bottom surface, the mixture was stirred using a microplate mixing deaeration machine (model name, Weltornado FK-62, Sakaki Dengyo Co., Ltd.) (stirring conditions, revolution 9, rotation 7, time 12).
(§3) The cell growth of the drug-added group from day 0 to day 3 or day 7 was calculated as T/C %, when the cell growth of the drug-free group was considered as 100%.

[2] = target: T1, menin (Flag tagged) and biotinylated MLL1 peptide (1-46aa) (Homo sapiens, UniProt O00255); test: biochemical
T1 sequence (O00255 1-610): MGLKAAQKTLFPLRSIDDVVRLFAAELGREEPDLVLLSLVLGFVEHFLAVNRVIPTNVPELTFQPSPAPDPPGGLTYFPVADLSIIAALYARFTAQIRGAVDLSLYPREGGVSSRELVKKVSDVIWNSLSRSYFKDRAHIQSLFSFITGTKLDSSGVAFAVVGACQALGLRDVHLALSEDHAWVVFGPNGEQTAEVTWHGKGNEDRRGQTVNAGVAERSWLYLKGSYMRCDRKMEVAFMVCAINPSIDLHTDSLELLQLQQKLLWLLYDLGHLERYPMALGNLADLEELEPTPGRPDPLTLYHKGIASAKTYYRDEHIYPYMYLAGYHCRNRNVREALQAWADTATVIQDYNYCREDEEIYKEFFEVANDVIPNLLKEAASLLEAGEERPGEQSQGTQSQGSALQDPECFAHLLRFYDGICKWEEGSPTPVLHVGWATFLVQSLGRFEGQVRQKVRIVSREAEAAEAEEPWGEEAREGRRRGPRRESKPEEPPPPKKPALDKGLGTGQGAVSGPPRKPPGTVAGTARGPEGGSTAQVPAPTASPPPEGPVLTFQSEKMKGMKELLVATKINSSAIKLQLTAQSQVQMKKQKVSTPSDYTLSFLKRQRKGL
Protocol: Then, the fluorescence signal by AlphaLISA (registered trademark, PerkinElmer Co., Ltd.) was measured using a plate reader (PerkinElmer Co., Ltd., EnVisionXcite).

MOLM-13 cells = test: cells; format: cell-based; settings: Homo sapiens
Protocol: as §1, §2, §3

MV-4-11 cells = test: Cell growth inhibitory activity, MV-4-11 cells (CellTiter-Glo, 384-well); format: cell-based; settings: Homo sapiens
Protocol: as §1, §2, §3

| SMILES | rate of the myeloid cell differentiation antigen Gr-1-expressing cells in living cells [1] | rate of the cKit-expressing cells in living cells [1] | GI50 (K562 cells; 72 h, K562, Day 3, read-out: GI50 (μM) Day 3 K562) [µM] | GI50 (K562 cells; 168 h, K562, Day 7, read-out: GI50 (μM) Day 7 K562) [µM] | IC50 [2] [µM] | GI50 (MOLM-13 cells; MOLM-13, 72 h, read-out: GI50 (μM) Day 3 MOLM-13) [µM] | GI50 (MOLM-13 cells; MOLM-13, 168 h, read-out: GI50 (μM) Day 7 MOLM-13) [µM] | GI50 (MV-4-11 cells; 72 h, MV4;11, Day 3, read-out: GI50 (μM) Day 3 MV4) [µM] | GI50 (MV-4-11 cells; 168 h, MV4;11, Day 7, read-out: GI50 (μM) Day 7 MV4) [µM] |
| --- | --- | --- | --- | --- | --- | --- | --- | --- | --- |
| COc1cc(-c2ccc(CN[C@H]3C[C@@H](O)[C@@H](N(C)c4ncnc5sc(CC(F)(F)F)cc45)C3)cc2)cnc1C#N [Example 22, 5-[4-({[(1R,3R,4S)-3-hydroxy-4-{methyl[6-(2,2,2-trifluoroethyl)thieno[2,3-d]pyrimidin-4-yl]amino}cyclopentyl]amino}methyl)phenyl]-3-methoxypyridine-2-carbonitrile Hydrochloride] | increased the rate of Gr-1-positive cells | reduced the rate of cKit-positive cells |  |  |  |  |  |  |  |
| COc1cc(-c2ccc(CN[C@H]3C[C@@H](O)[C@@H](N(C)c4ncnc5sc(CC(F)(F)F)cc45)C3)cc2)nnc1OC [Example 25, (1R,2S,4R)-4-({[4-(5,6-dimethoxypyridazin-3-yl)phenyl]methyl}amino)-2-{methyl[6-(2,2,2-trifluoroethyl)thieno[2,3-d]pyrimidin-4-yl]amino}cyclopentan-1-ol Hydrochloride] | increased the rate of Gr-1-positive cells | reduced the rate of cKit-positive cells |  |  |  |  |  |  |  |
| COc1nc(N(C)[C@H]2C[C@@H](NCc3ccc(-c4cc(OC)c(OC)nn4)cc3)C[C@H]2O)c2cc(CC(F)(F)F)sc2n1 [Example 27, (1R,2S,4R)-4-({[4-(5,6-dimethoxypyridazin-3-yl)phenyl]methyl}amino)-2-{[2-methoxy-6-(2,2,2-trifluoroethyl)thieno[2,3-d]pyrimidin-4-yl](methyl)amino}cyclopentan-1-ol Hydrochloride] | increased the rate of Gr-1-positive cells | reduced the rate of cKit-positive cells |  |  |  |  |  |  |  |
| FC(F)(F)Cc1cc2c(N[C@@H]3CCC[C@H](NCc4ccc(NC5CCCCC5)cc4)C3)ncnc2s1 [Example 44, (1S,3R)-N^1-{[4-(cyclohexylamino)phenyl]methyl}-N^3-[6-(2,2,2-trifluoroethyl)thieno[2,3-d]pyrimidin-4-yl]cyclohexane-1,3-diamine hydrochloride] |  |  | 2.75 | 1.91 | 0.335 | 2.73 | 2.93 | 1.89 | 1.53 |
